In patent publication US12492403B2, “Aptamers and the use thereof in the treatment of cancer” (FUNDACIÓN PARA LA INVESTIGACIÓN BIOMÉDICA DEL HOSPITAL …, priority 2018, dated 2025):

What was measured:
Assay type in all cases: cell-based, human
MDA-MB-468 cells [1] = experiment: MTT activity assay, aptamers transfected with Lipofectamine 2000; settings: MDA-MB-468, MTT activity at 48 hours, 0 to 500 nM
Method: FIGS. 8A-8C. Effect of aptamer apMNKQ2 on MTT activity of breast cell lines. MCF7, MDA-MB-231, and MDA-MB-468 cells were seeded in 96-well plates at a density of 10^4 cells/well. […] The graphs represent the means±SEM of 3 independent experiments (*p<0.05, **p<0.01, and ***p<0.001 with respect to the control AT).
The Lipofectamine™ 2000 system (Invitrogen, USA) was used to treat cells with the different aptamers. To prepare the DNA-lipofectamine complex, lipofectamine and DNA were separately diluted in opti-MEM (Gibco, USA) and left to incubate at room temperature for 5 minutes. They were then mixed to form lipofectamine-DNA complexes and incubated for 20 minutes at room temperature. Finally, the mixture was added to the cells that had been washed twice with antibiotic-free medium to prevent the interference thereof with lipofectamine. The cells were incubated at 37° C. for 5 hours, after which the reagent was removed and a complete medium was added.
MTT activity. The cells were seeded in 96-well plates and after having been transfected, the culture medium was removed and 100 μL/well of MTT at 1 mg/ml in culture medium were added. […] After 48 hours, the reduction of MTT was determined by means of spectrophotometry in Infinite F200 (TECAN, Switzerland) at 540 nm.
The results were expressed as the percentage of viability with respect to the control or in absorbance units.

caspase 3 = experiment: Caspase 3 activity by western blot of PARP and α-spectrin fragments; settings: MCF7, MDA-MB-231, and MDA-MB-468 cells, 24 hours post-transfection
Excerpt: FIGS. 11A & 11B. Effect of apMNKQ2 on caspase 3 activity by means of PARP and α-spectrin substrates in breast cell lines. Immunodetection with specific antibodies by means of 12% SDS-PAGE of “cleaved” PARP (FIG. 11A) and α-spectrin (FIG. 11B) for detecting the proteolytic activity of caspase 3 after the transfection of lines MCF7, MDA-MB-231, and MDA-MB-468 with apMNKQ2 and the control aptamer AT. The activity of this protease gives rise to characteristic proteolysis patterns with specific fragments of 89 kDa for PARP and 150 and 120 kDa for α-spectrin.
Caspase 3 activity was assessed by means of western blot with two endogenous substrates of this protein: • the enzyme poly ADP-ribose (PARP), fractionated in late apoptotic stages, using a specific antibody that only recognizes the PARP fragment processed by caspase 3. • the protein α-spectrin, with an antibody capable of recognizing the complete form and the fragments obtained after being broken down by caspase 3. Colony Formation Assays
Similarly, to verify that apMNKQ2 is capable of increasing apoptosis in the cell lines, the activity of caspase 3, a protease activated in apoptosis, was assessed. The western blot study was performed on two endogenous substrates of caspase 3: the enzyme poly ADP-ribose (PARP), fractionated in late apoptotic stages, and the protein α-spectrin. […]

MDA-MB-231 cells = experiment: Transwell invasion assay with Matrigel; settings: MDA-MB-231, 400 nM
Method: (§1) FIGS. 13A, 13B and 13C. Effect of aptamer apMNKQ2 on the migration and invasion of breast cell lines. The three lines of study were seeded in 6-well plates at a density of 2.5×10^5 cells/well and transfected at 24 hours with apMNKQ2 at the established working concentrations. The cell lines were deprived of serum after 6 hours and collected and re-seeded (4×10^4 cells/well) after 24 hours in a transwell […], in order to perform migration and invasion assays, respectively. At 24 hours, the membranes of the transwell are stained with Hoechst and cells that have gone through the membranes are quantified using fluorescence microscopy (FIG. 13A). The boxes (FIGS. 13B and 13C) represent the mean±the maximum and minimum of 4-5 independent experiments (*p<0.05, **p<0.01, and ***p<0.001 with respect to the control aptamer AT).
(§2) Cell migration and invasion assays were performed using transwell (Corning, USA). […] After that time, they were collected, counted, and reseeded 4×10^4 cells in 300 μl of a serum-free complete medium inside the transwell (migration) or a transwell on which a layer of 100 μL of Matrigel (Corning, USA) (invasion) had previously been polymerized. […] Finally, two washes in PBS were performed, and 5 photographs of each membrane of the transwell were taken using a fluorescence microscope (Olympus IX70). The number of cells was analyzed using the imageJ program. […]

MDA-MB-468 cells [2] = experiment: Transwell invasion assay with Matrigel; settings: MDA-MB-468, 50 nM
Method: as §1, §2

AKT = experiment: Western blot of phosphorylation, combined therapy study; settings: MDA-MB-231 and MCF7 cells, 24 hours
Method: (§3) FIG. 22A & 22B. Combined therapy studies of apMNKQ2 and everolimus. […] The different antibodies used are indicated.
(§4) Seventy-two hours after treatment, MTT activity was measured.

eIF4E = experiment: as above; settings: MDA-MB-231 and MCF7 cells, 24 hours
Method: as §3, §4

ribosomal protein S6 = experiment: as above; settings: MDA-MB-231 and MCF7 cells, 24 hours
Method: as §3, §4

Substance: 5′TGGGGTGGGCGGGCGGGGGTGGGGGTGGT-3′ (DNA, backbone and methylation of C not given here; further chemistry not fully specified) [apMNKQ2]
- GI50 (MDA-MB-468 cells [1]): 19 nM
- caspase 3 activity (proteolysis fragments of PARP and α-spectrin) (caspase 3): apoptotic effect
- invasion (transwell with Matrigel) (MDA-MB-231 cells): significant reduction of invasion
- invasion (transwell with Matrigel) (MDA-MB-468 cells [2]): significant reduction of invasion
- phosphorylation of AKT (AKT): no effect
- phosphorylation of eIF4E (eIF4E): no effect
- phosphorylation of ribosomal protein S6 (dependent on mTOR activity) (ribosomal protein S6): also affects this phosphorylation
